Columns and labels:
MtrF [1] = molecular target: MtrF (Neisseria gonorrhoeae, UniProt Q9RNX2); assay: isothermal titration calorimetry; type: binding
MtrF [2] = molecular target: MtrF (Neisseria gonorrhoeae, UniProt Q9RNX2, W420A); assay: biochemical
[3] = molecular target: Neisseria gonorrhoeae MtrF transporter (Neisseria gonorrhoeae); assay: SEC

Molecule | Kd (MtrF [1]) | Kd (MtrF [2]) | stoichiometry N [3]
Nc1ccc(C(=O)O)cc1 [p-aminobenzoic acid] | 0.54 ± 0.02 µM | 41.1 ± 11.5 µM | 
Nc1ccc(S(=O)(=O)Nc2ncccn2)cc1 [sulfadiazine] | 12.7 ± 0.62 µM | 106 ± 25.6 µM | 
Cc1cc(C)nc(NS(=O)(=O)c2ccc(N)cc2)n1 [sulfamethazine] | 0.33 ± 0.02 µM | 10.8 ± 1.17 µM | 
Nc1ccc(S(=O)(=O)Nc2nccs2)cc1 [sulfathiazole] | 1.52 ± 0.07 µM | 50.8 ± 8.9 µM | 
Neisseria gonorrhoeae MtrF transporter (natural protein) |  |  | 2
